Data set [1] deals with 9L glioma cells. In words: In vitro imaging of CTX:Cy5.5 binding to 9L glioma cells (NIR/confocal microscopy). In kind it is cell-based, rat. As to conditions: pre-incubation with MMP-2 inhibitor. As to the method: 9L/lacZ gliosarcoma cells (ATCC, VA) and primary human foreskin fibroblast (HFF) were maintained in DMEM and RPMI medium both supplemented with 1% sodium pyruvate, 1% streptomycin/penicillin and 10% FBS (Hyclone, UT), respectively. 2×10^5 cells were seeded on sterile cover slips 36 hrs prior to labeling and confocal microscopy. Cells were cultured with 1 ml of CTX:CY5.5 conjugate (1 uM) for 2 hours in a 37° C. humidified incubator maintained at 5% CO2. Cover slips were washed 2 times in cell culture medium and 2 times in PBS buffer. Following this step, cell membranes were stained with 1 μM solution of FM 1-43FX (Molecular Probes, OR) for 20 min in dark at room temperature, washed 2 times in PBS and fixed in 4% paraformaldehyde. Cellular nuclei were stained with 4′,6-diamidino-2-phenylndole (DAPI, Sigma Aldrich, MO).
Confocal images were acquired using a DeltaVision SA3.1 Wide-Field Deconvolution Microscope (Applied Precision, WA) equipped with DAPI, TRITC, and Cy5 filters. Image processing was performed using SoftWoRX (Applied Precision, WA).
To determine whether CTX retained specific binding to glioma cells after conjugation to Cy5.5, we incubated the conjugate with 9L glioma cells and primary fibroblasts and evaluated binding by NIR microscopy. […]

In data set [2] the test system is 9L glioma xenografts. In words: In vivo biophotonic imaging of mice with 9L glioma xenografts. Details: species or system mouse. The conditions noted are these: versus control mice without 1,10-phenanthroline. As to the method: All mouse studies were conducted in accordance with IACUC approved protocols. Subcutaneous xenografts were established in nu/nu (nude) mice using 9L, a rat gliosarcoma cell line (ATCC), and RH30, a rhabdomyosarcoma cell line. The xenografts were established using 1 million 9L or RH30 cells suspended in serum free media and matrigel at a 1:1 ratio. Intracranial xenografts were established by stereotaxic injection of 1 million 9L cells suspended in 10 μl PBS into the brain 3 mm lateral and posterior to the bregma. ND2:SmoA1 medulloblastoma mice, TRAMP prostate cancer mice and Apc^1638N intestinal adenoma and adenocarcinoma mice were as previously described. See, Fodde, R., et al., A targeted chain-termination mutation in the mouse Apc gene results in multiple intestinal tumors. Proc. Natl. Acad. Sci. U.S.A., 1994. 91(19): p. 8969-73; Greenberg, N. M., et al., Prostate cancer in a transgenic mouse. Proc. Natl. Acad. Sci. U.S.A., 1995. 92(8): p. […]
CTX:Cy5.5 (0.1-0.2 ml of 10-20 μM) was administered intravenously by tail vein injection. […] Relevant organs and tumors were dissected from some of the animals and fluorescence image were obtained immediately following dissection. In time course experiments, all images were captured using identical system settings and fluorescence emission was normalized to photons per second per centimeter squared per steradian (p/s/cm^2/sr).

Data set [3] concerns glioma and normal brain histologic sections. The experiment in a line: Staining of histologic sections of glioma and normal brain. Set-up: species or system human.
The conditions of data set [4]: previously reported; cited from earlier work.
The format of data set [5] is in vivo, mouse. The method, then: To further assess potential CTX toxicity at doses used for optical imaging, complete necropsy was performed on mice two weeks after exposure to CTX.

`c1cnc2c(c1)ccc1cccnc12` [1,10-phenanthroline]: the “Binding of CTX:Cy5.5 to 9L glioma cells after pre-incubation with 1,10-phenanthroline” value in data set [1] is given as “blocked”. The “Specific binding of CTX:Cy5.5 in mice pre-treated with 1,10-phenanthroline” value in data set [2] is recorded as “six-fold lower”.
On to Cy5.5, for which the “staining of glioma section” value in data set [3] is reported as “does not stain glioma”.
Turning to chlorotoxin [CTX], the “locomotor activity in mice” value in data set [4] is “reduce locomotor activity”. In addition, in data set [5] (doses used for optical imaging), the “laboratory evaluation (electrolytes, blood counts, liver and kidney function)” value is recorded as “no alteration”; the toxicity overall result was “no toxicity could be detected”. Also, the “pathologic changes in organs (necropsy)” value in data set [5] (doses used for optical imaging, b143: two weeks after exposure) is “indistinguishable from control mice”. Moreover, the open field observation result in data set [5] (injected mice versus control mice) is on record as “indistinguishable from control mice”.

These data come from US8778310B2, “Fluorescent chlorotoxin conjugate and method for intra-operative visualization of cancer” (priority 2005, dated 2014).
